Source: patent US20240100172A1, “METHODS AND COMPOUNDS FOR TARGETED AUTOPHAGY” (Hangzhou Jijing Pharmaceutical Technology Limited, priority 2020, published 2024)
Marks after values point to notes of the source that are not given here.

Legend:
KRAS = target: T1, KRAS (Homo sapiens, UniProt P01116, G12C); assay: KRAS levels in NCI-H2030 cells (Western blot); format: cell-based
T1 construct: endogenous in cells; host or cells: NCI-H2030
Procedure: The following protocol was used to test the effect of exemplary compounds on KRAS levels in NCI-H2030 cells.
On Day 1, seed NCI-N2030 cells were placed into 6-well plates (3.5×10^5 cells/well/2 mL) and incubated for 24 hours. On Day 2, 6 μL compound solutions were added into testing wells in order to obtain compound concentrations of 3.33 μM and 10 μM—with DMSO concentrations of 0.3%. The wells were thoroughly agitated and incubated for 24 hours. On Day 3, the supernatant in the testing wells was discarded, and the testing wells were washed once with 1 mL of cold PBS. Then, 100 μL of RIPA buffer (Boston BioProducts BP-115D) was added to the testing wells with 1× complete protease inhibitor (Roche, #4693116001) and phosphatase inhibitor (Roche, #4906837001). The wells were then agitated by pipetting a few times, the testing plates were held on ice for 30 minutes to affect complete lysis of the cells. The cell lysate from the testing wells was then collected into EP tubes, and the tubes were spun at about 20000×g for 10 minutes at 4° C., before collecting the supernatant from the testing cells.
Protein concentrations in the collected supernatants were measured using BCA methods. The cell lysate was mixed with 5× NuPAGE SDS Loading Buffer and heated at 100° C. for 10 minutes in a heat block. Then 15 μL samples (15 μg) were loaded into 26-well SDS-PAGE gel (Novex, WXP81626BOX) and the gels were processed at 120 V for 1.5 hours, prior to electrotransfer to an NC membrane using a wet-transfer method with 250 mA for 1.5 hours. The resulting membrane was then blocked for 1 hours with LICOR blocking buffer (LI-COR, 927-70001), and was then incubated with a primary antibody 1:1000 (Anti-KRAS (LS-C175665)) that was previously prepared in block buffer at 4° C. overnight. Then, the membrane was washed three times with 1×TBST for 5 minutes each washing, and the membrane was incubated with a secondary antibody GAM 1:5000 (anti-mouse IgG (LI-COR, 926-68070)) for 1 hour at room temperature. The membrane was then washed three times with 1×TBST for 5 minutes each washing, and the membrane was read on LiCOR.
Table 2 below summarizes the normalized KRAS levels in NCI-H2030 cells that were treated with the exemplary compounds of Examples 1-3 for 24 hours.

BTK = target: T2, BTK (Homo sapiens, UniProt Q06187); assay: BTK levels in NAMALWA cells (Western blot); format: cell-based; conditions: 4 hours EBSS starvation
T2 construct: endogenous in cells; host or cells: NAMALWA
Procedure: The following protocol was used to test the effect of exemplary compounds on BTK levels in NAMALWA cells.
On Day 1, NAMALWA cells were seeded in 6 well plates at concentration of 2×10^6/well and were incubated overnight. On Day 2, the cells were treated at indicated concentrations following 4 hours of starvation in Earle's Balanced Salt Solution (EBSS, Gibco, #24010-043). After compound treatment for 24 hours, cells were collected and samples were prepared. Fresh, ice cold 1×RIPA lysis buffer supplemented with protease and phosphatase inhibitors was then added to the cell samples, followed by incubation on ice for 30 minutes, and then cells samples were collected. Cell samples were then centrifuged at 4° C., 12,000 rpm for 15 minutes and the resulting supernatant was collected. Protein concentrations within the collected samples were then measured using BCA kit (Solarbio, PC0020), and the cell lysate was mixed with SDS loading buffer and heated at 100° C. for 5 minutes.
15 μg of protein from the samples prepared above was loaded in 4-12% Bis-Tris Gels in 1×MOPS buffer, and the samples were run at 120 V for 120 min. Transfer of the resulting gels was then carried out using the Transblot system with NC membrane, and the membranes were blocked with 5% BSA in TBST for 1 hr at room temperature. Membrane hybridization was then carried out overnight at 4° C. with primary antibodies (anti-BTK, Cell Signaling Technology #8547, Rabbit, 1:1000 diluted in 1% BSA in TBST), and the resulting membranes were washed with TBST for 3×10 min at RT, and then incubated with second antibodies (Goat anti-Rabbit IgG H&L, IRDye® 800CW, LI-COR, 926-32211, 1:5000 diluted in 1% BSA in TBST) in 1% BSA for 1 hr at room temperature. After washing the resulting membranes with TBST for 10 min, 3 times at room temperatures, the membranes were imaged using a Li-COR imaging system.
Table 3 below summarizes the normalized BTK levels in NAMALWA cells treated with the exemplary compounds of Examples 6-8 for 24 hours.

T2 sequence (Q06187 whole entry): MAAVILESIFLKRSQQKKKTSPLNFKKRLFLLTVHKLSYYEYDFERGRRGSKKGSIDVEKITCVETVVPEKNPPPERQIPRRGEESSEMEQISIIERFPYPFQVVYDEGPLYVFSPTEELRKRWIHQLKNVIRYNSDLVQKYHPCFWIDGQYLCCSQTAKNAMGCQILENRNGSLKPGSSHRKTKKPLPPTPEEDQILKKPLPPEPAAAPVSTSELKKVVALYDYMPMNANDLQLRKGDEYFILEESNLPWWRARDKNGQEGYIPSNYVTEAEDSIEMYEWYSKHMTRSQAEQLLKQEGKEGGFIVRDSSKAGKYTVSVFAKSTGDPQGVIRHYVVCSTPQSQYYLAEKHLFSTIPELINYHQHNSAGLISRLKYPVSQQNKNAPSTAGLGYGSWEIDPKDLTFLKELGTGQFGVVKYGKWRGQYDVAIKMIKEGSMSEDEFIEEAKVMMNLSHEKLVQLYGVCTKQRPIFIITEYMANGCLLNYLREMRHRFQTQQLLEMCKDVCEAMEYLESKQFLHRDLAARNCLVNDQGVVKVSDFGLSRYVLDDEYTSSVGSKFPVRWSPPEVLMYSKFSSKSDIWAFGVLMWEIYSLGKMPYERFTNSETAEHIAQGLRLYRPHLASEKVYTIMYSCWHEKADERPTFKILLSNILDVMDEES

Compound | Normalized KRAS levels in NCI-H2030 cells treated with Compounds for 24 hours (KRAS; 3.33 μM compound concentration) | Normalized KRAS levels in NCI-H2030 cells treated with Compounds for 24 hours (KRAS; 10 μM compound concentration) | Normalized BTK levels in NAMALWA cells treated with Compounds for 24 hours after 4 hours of starvation in EBSS (BTK; 3.33 μM compound concentration) | Normalized BTK levels in NAMALWA cells treated with Compounds for 24 hours after 4 hours of starvation in EBSS (BTK; 10 μM compound concentration) | other results
C=C(F)C(=O)N1CCN(c2nc(OC[C@@H]3CCCN3CCCOCCOCCOCCOc3c(Br)cc(C=C4C(=O)Nc5ccc(I)cc54)cc3Br)nc3c2CCN(c2cccc4cccc(Cl)c24)C3)C[C@@H]1CC#N [Example 1, 2-((S)-4-(7-(8-chloronaphthalen-1-yl)-2-(((S)-1-(3-(2-(2-(2-(2,6-dibromo-4-((5-iodo-2-oxoindolin-3-ylidene)methyl)phenoxy)ethoxy)ethoxy)ethoxy)propyl)pyrrolidin-2-yl)methoxy)-5,6,7,8-tetrahydropyrido[3,4-d]pyrimidin-4-yl)-1-(2-fluoroacryloyl)piperazin-2-yl)acetonitrile] | 84.9% | 87.5% |  |  | 
C=C(F)C(=O)N1CCN(c2nc(OC[C@@H]3CCCN3CCCOCCOc3c(Br)cc(C=C4C(=O)Nc5ccc(I)cc54)cc3Br)nc3c2CCN(c2cccc4cccc(Cl)c24)C3)C[C@@H]1CC#N [Example 2, 2-((S)-4-(7-(8-chloronaphthalen-1-yl)-2-(((S)-1-(3-(2-(2,6-dibromo-4-((5-iodo-2-oxoindolin-3-ylidene)methyl)phenoxy)ethoxy)propyl)pyrrolidin-2-yl)methoxy)-5,6,7,8-tetrahydropyrido[3,4-d]pyrimidin-4-yl)-1-(2-fluoroacryloyl)piperazin-2-yl)acetonitrile] | 45.1% | 48.6% |  |  | 
C=C(F)C(=O)N1CCN(c2nc(OC[C@@H]3CCCN3CCCOCCOCCOc3c(Br)cc(C=C4C(=O)Nc5ccc(I)cc54)cc3Br)nc3c2CCN(c2cccc4cccc(Cl)c24)C3)C[C@@H]1CC#N [Example 3, 2-((S)-4-(7-(8-chloronaphthalen-1-yl)-2-(((S)-1-(3-(2-(2-(2,6-dibromo-4-((5-iodo-2-oxoindolin-3-ylidene)methyl)phenoxy)ethoxy)ethoxy)propyl)pyrrolidin-2-yl)methoxy)-5,6,7,8-tetrahydropyrido[3,4-d]pyrimidin-4-yl)-1-(2-fluoroacryloyl)piperazin-2-yl)acetonitrile] | 63.0% | 65.7% |  |  | 
Nc1ncnc2c1c(-c1ccc(Oc3ccccc3)cc1)nn2C1CCN(CCOCCOCCOCCOCCN2C(=O)C(=Cc3cc(Br)c(O)c(Br)c3)c3cc(I)ccc32)CC1.O=CO [Example 6, 1-(14-(4-(4-amino-3-(4-phenoxyphenyl)-1H-pyrazolo[3,4-d]pyrimidin-1-yl)piperidin-1-yl)-3,6,9,12-tetraoxatetradecyl)-3-(3,5-dibromo-4-hydroxybenzylidene)-5-iodo indolin-2-one formate] |  |  |  |  | Normalized BTK levels in NAMALWA cells treated with Compounds for 24 hours after 4 hours of starvation in EBSS (BTK; 10 μM column, footnote: tested at 11.1 uM from 100 uM top concentration): ~58.7%*; Normalized BTK levels in NAMALWA cells treated with Compounds for 24 hours after 4 hours of starvation in EBSS (BTK; 30 μM column, footnote: tested at 33.3 uM from 100 uM top concentration): ~30.1%*

Second part, led by results:

Normalized KRAS levels in NCI-H2030 cells treated with Compounds for 24 hours (KRAS; 3.33 μM compound concentration) | Normalized KRAS levels in NCI-H2030 cells treated with Compounds for 24 hours (KRAS; 10 μM compound concentration) | Normalized BTK levels in NAMALWA cells treated with Compounds for 24 hours after 4 hours of starvation in EBSS (BTK; 3.33 μM compound concentration) | Normalized BTK levels in NAMALWA cells treated with Compounds for 24 hours after 4 hours of starvation in EBSS (BTK; 10 μM compound concentration) | Compound | other results
 |  | 67.0% | 48.2% | Nc1ncnc2c1c(-c1ccc(Oc3ccccc3)cc1)nn2C1CCN(CCOCCOCCOCCN/C(=C2\C(=O)Nc3ccc(Br)cc32)c2cccc(O)c2)CC1.O=CO [Example 7, (3Z)-3-[[2-[2-[2-[2-[4-[4-amino-3-(4-phenoxyphenyl)pyrazolo[3,4-d]pyrimidin-1-yl]-1-piperidyl]ethoxy]ethoxy]ethoxy]ethylamino]-(3-hydroxyphenyl)methylene]-5-bromo-indolin-2-one formate] | 
 |  | 83.1% | 66.3% | Nc1ncnc2c1c(-c1ccc(Oc3ccccc3)cc1)nn2C1CCN(CCOCCOCCN/C(=C2\C(=O)Nc3ccc(Br)cc32)c2cccc(O)c2)CC1 [Example 8, (3Z)-3-[[2-[2-[2-[4-[4-amino-3-(4-phenoxyphenyl)pyrazolo[3,4-d]pyrimidin-1-yl]-1-piperidyl]ethoxy]ethoxy]ethylamino]-(3-hydroxyphenyl)methylene]-5-bromo-indolin-2-one] | 
